{"source": "ChEMBL document CHEMBL1154057", "about": "“Synthesis and antibacterial activity of novel 15-membered macrolide derivatives: 4''-carbamate, 11,12-cyclic carbonate-4''-carbamate and 11,4''-di-O-arylcarbamoyl analogs of azithromycin” (2009)", "key": {"Streptococcus pneumoniae [1]": {"system": "Streptococcus pneumoniae", "test": "Antibacterial activity against erythromycin-susceptible Streptococcus pneumoniae ATCC 49619"}, "Streptococcus pneumoniae [2]": {"system": "Streptococcus pneumoniae", "test": "Antibacterial activity against erythromycin-resistant Streptococcus pneumoniae A22072 encoded by mef gene"}, "Streptococcus pneumoniae [3]": {"system": "Streptococcus pneumoniae", "test": "Antibacterial activity against erythromycin-resistant Streptococcus pneumoniae B1 encoded by erm gene"}, "Streptococcus pneumoniae [4]": {"system": "Streptococcus pneumoniae", "test": "Antibacterial activity against erythromycin-resistant Streptococcus pneumoniae AB11 encoded by erm and mef gene"}}}
{"smiles": "CC[C@H]1OC(=O)[C@H](C)[C@@H](O[C@H]2C[C@@](C)(OC)[C@@H](OC(=O)NCCc3ccccc3Cl)[C@H](C)O2)[C@H](C)[C@@H](O[C@@H]2O[C@H](C)C[C@H](N(C)C)[C@H]2O)[C@@](C)(O)C[C@@H](C)CN(C)[C@H](C)[C@@H](O)[C@]1(C)O", "values": [{"measurement": "MIC", "setting": "Streptococcus pneumoniae [1]", "result": "< 0.03", "unit": "µg/mL"}, {"measurement": "MIC", "setting": "Streptococcus pneumoniae [2]", "result": 1, "unit": "µg/mL"}, {"measurement": "MIC", "setting": "Streptococcus pneumoniae [3]", "result": 8, "unit": "µg/mL"}, {"measurement": "MIC", "setting": "Streptococcus pneumoniae [4]", "result": 8, "unit": "µg/mL"}]}
{"smiles": "CCCNC(=O)O[C@H]1[C@H](C)O[C@@H](O[C@H]2[C@H](C)[C@@H](O[C@@H]3O[C@H](C)C[C@H](N(C)C)[C@H]3O)[C@@](C)(O)C[C@@H](C)CN(C)[C@H](C)[C@H]3OC(=O)O[C@]3(C)[C@@H](CC)OC(=O)[C@@H]2C)C[C@@]1(C)OC", "values": [{"measurement": "MIC", "setting": "Streptococcus pneumoniae [1]", "result": 0.06, "unit": "µg/mL"}, {"measurement": "MIC", "setting": "Streptococcus pneumoniae [2]", "result": 0.12, "unit": "µg/mL"}, {"measurement": "MIC", "setting": "Streptococcus pneumoniae [3]", "result": 16, "unit": "µg/mL"}, {"measurement": "MIC", "setting": "Streptococcus pneumoniae [4]", "result": 16, "unit": "µg/mL"}]}
{"smiles": "CC[C@H]1OC(=O)[C@H](C)[C@@H](O[C@H]2C[C@@](C)(OC)[C@@H](OC(=O)NCCc3ccc(O)cc3)[C@H](C)O2)[C@H](C)[C@@H](O[C@@H]2O[C@H](C)C[C@H](N(C)C)[C@H]2O)[C@@](C)(O)C[C@@H](C)CN(C)[C@H](C)[C@@H](OC(=O)NCc2ccccc2)[C@]1(C)O", "values": [{"measurement": "MIC", "setting": "Streptococcus pneumoniae [1]", "result": "< 0.03", "unit": "µg/mL"}, {"measurement": "MIC", "setting": "Streptococcus pneumoniae [2]", "result": 0.12, "unit": "µg/mL"}, {"measurement": "MIC", "setting": "Streptococcus pneumoniae [3]", "result": 0.25, "unit": "µg/mL"}, {"measurement": "MIC", "setting": "Streptococcus pneumoniae [4]", "result": 128, "unit": "µg/mL"}]}
